Patent US20230085307A1, “PYRIDAZINONE COMPOUND AND HERBICIDE” (NISSAN CHEMICAL CORPORATION, priority 2019, published 2023)

Experiments:
persian speedwell [1] = assay: Test Example 5: herbicidal effect by foliage application, plastic box (Table 20, symbol R); type: in vivo, Persian speedwell (Veronica persica); details: foliage application, evaluated three weeks after application
Method in brief: (§1)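 Foliar spray test: emulsion formulation diluted in water to a set application rate, sprayed onto 14-day-old plants raised in diluvial soil at 25° C to 30° C under glass. Both herbicidal effect and crop effect rated visually three weeks later.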

barnyard grass [2] = assay: Test Example 4: herbicidal effect by soil treatment (Table 19, symbol H); type: in vivo, barnyard grass (Echinochloa crus-galli); details: amount of applied herbicide 320 g/ha
Method in brief: (§2)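 Step 1: sow seeds in sterilized diluvial soil, cover ~1.5 cm. Step 2: spray diluted emulsion onto soil surface at predetermined rate. Step 3: greenhouse, 25–30° C, three weeks. Step 4: grade effect on each plant by earlier criteria.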

green foxtail [3] = assay: Test Example 5: herbicidal effect by foliage application, plastic box (Table 20, symbol G); type: in vivo, green foxtail (Setaria viridis); details: foliage application, evaluated three weeks after application
Method in brief: as §1

lambsquarters [4] = assay: Test Example 4: herbicidal effect by soil treatment (Table 19, symbol O); type: in vivo, lambsquarters (Chenopodium album); details: amount of applied herbicide 320 g/ha
Method in brief: as §2

wild oat [5] = assay: Test Example 5: herbicidal effect by foliage application, plastic box (Table 20, symbol I); type: in vivo, wild oat (Avena fatua); details: foliage application, evaluated three weeks after application
Method in brief: as §1

blackgrass [6] = assay: Test Example 4: herbicidal effect by soil treatment (Table 19, symbol J); type: in vivo, blackgrass (Alopecurus myosuroides); details: amount of applied herbicide 320 g/ha
Method in brief: as §2

redroot pigweed [7] = assay: Test Example 5: herbicidal effect by foliage application, plastic box (Table 20, symbol N); type: in vivo, redroot pigweed (Amaranthus retroflexus); details: foliage application, evaluated three weeks after application
Method in brief: as §1

Chinese sprangletop = assay: Test Example 3: herbicidal effect by foliage application, Wagner pot (Table 18, symbol D); type: in vivo, chinese sprangletop (Leptochloa chinensis); details: amount of applied herbicide 320 g/ha
Method in brief: (§3)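 Plants were sown in alluvial soil held under 0.1–0.5 cm standing water and grown 14 days in a greenhouse at 25–30 °C. An emulsifiable formulation, water-diluted to the set dose, was then sprayed onto the foliage, and effects were scored three weeks later using previously defined criteria.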

blackgrass [8] = assay: Test Example 5: herbicidal effect by foliage application, plastic box (Table 20, symbol J); type: in vivo, blackgrass (Alopecurus myosuroides); details: foliage application, evaluated three weeks after application
Method in brief: as §1

rice flat sedge = assay: Test Example 3: herbicidal effect by foliage application, Wagner pot (Table 18, symbol E); type: in vivo, rice flat sedge (Cyperus iria); details: amount of applied herbicide 320 g/ha
Method in brief: as §3

windgrass [9] = assay: Test Example 5: herbicidal effect by foliage application, plastic box (Table 20, symbol L); type: in vivo, windgrass (Apera spica-venti); details: foliage application, evaluated three weeks after application
Method in brief: as §1

barnyard grass [10] = assay: Test Example 3: herbicidal effect by foliage application, Wagner pot (Table 18, symbol H); type: in vivo, barnyard grass (Echinochloa crus-galli); details: amount of applied herbicide 320 g/ha
Method in brief: as §3

windgrass [11] = assay: Test Example 4: herbicidal effect by soil treatment (Table 19, symbol L); type: in vivo, windgrass (Apera spica-venti); details: amount of applied herbicide 320 g/ha
Method in brief: as §2

southern crabgrass [12] = assay: Test Example 5: herbicidal effect by foliage application, plastic box (Table 20, symbol F); type: in vivo, southern crabgrass (Digitaria ciliaris); details: foliage application, evaluated three weeks after application
Method in brief: as §1

velvetleaf [13] = assay: Test Example 4: herbicidal effect by soil treatment (Table 19, symbol M); type: in vivo, velvetleaf (Abutilon theophrasti); details: amount of applied herbicide 320 g/ha
Method in brief: as §2

southern crabgrass [14] = assay: Test Example 4: herbicidal effect by soil treatment (Table 19, symbol F); type: in vivo, southern crabgrass (Digitaria ciliaris); details: amount of applied herbicide 320 g/ha
Method in brief: as §2

velvetleaf [15] = assay: Test Example 5: herbicidal effect by foliage application, plastic box (Table 20, symbol M); type: in vivo, velvetleaf (Abutilon theophrasti); details: foliage application, evaluated three weeks after application
Method in brief: as §1

Italian ryegrass [16] = assay: Test Example 4: herbicidal effect by soil treatment (Table 19, symbol K); type: in vivo, Italian ryegrass (Lolium multiflorum); details: amount of applied herbicide 320 g/ha
Method in brief: as §2

Italian ryegrass [17] = assay: Test Example 5: herbicidal effect by foliage application, plastic box (Table 20, symbol K); type: in vivo, Italian ryegrass (Lolium multiflorum); details: foliage application, evaluated three weeks after application
Method in brief: as §1

barnyard grass [18] = assay: Test Example 5: herbicidal effect by foliage application, plastic box (Table 20, symbol H); type: in vivo, barnyard grass (Echinochloa crus-galli); details: foliage application, evaluated three weeks after application
Method in brief: as §1

false cleavers = assay: Test Example 4: herbicidal effect by soil treatment (Table 19, symbol Q); type: in vivo, false cleavers (Galium spurium); details: amount of applied herbicide 320 g/ha
Method in brief: as §2

green foxtail [19] = assay: Test Example 4: herbicidal effect by soil treatment (Table 19, symbol G); type: in vivo, green foxtail (Setaria viridis); details: amount of applied herbicide 320 g/ha
Method in brief: as §2

redroot pigweed [20] = assay: Test Example 4: herbicidal effect by soil treatment (Table 19, symbol N); type: in vivo, redroot pigweed (Amaranthus retroflexus); details: amount of applied herbicide 320 g/ha
Method in brief: as §2

wild oat [21] = assay: Test Example 4: herbicidal effect by soil treatment (Table 19, symbol I); type: in vivo, wild oat (Avena fatua); details: amount of applied herbicide 320 g/ha
Method in brief: as §2

lambsquarters [22] = assay: Test Example 5: herbicidal effect by foliage application, plastic box (Table 20, symbol O); type: in vivo, lambsquarters (Chenopodium album); details: foliage application, evaluated three weeks after application
Method in brief: as §1

persian speedwell [23] = assay: Test Example 4: herbicidal effect by soil treatment (Table 19, symbol R); type: in vivo, Persian speedwell (Veronica persica); details: amount of applied herbicide 320 g/ha
Method in brief: as §2

chickweed [24] = assay: Test Example 4: herbicidal effect by soil treatment (Table 19, symbol P); type: in vivo, common chickweed (Stellaria media); details: amount of applied herbicide 320 g/ha
Method in brief: as §2

chickweed [25] = assay: Test Example 5: herbicidal effect by foliage application, plastic box (Table 20, symbol P); type: in vivo, common chickweed (Stellaria media); details: foliage application, evaluated three weeks after application
Method in brief: as §1

COc1cc(F)ccc1-c1sc2ccc(C(C)=NOC(C)C)cc2c1-c1c(O)c(C)nn(C)c1=O [2-195]
herbicidal effect on R: persian speedwell (criteria 0-5) (persian speedwell [1]; 320 g/ha): 5 (Herbicidal rate of 90% or more (almost completely withered))
H: barnyard grass, herbicidal effect rating (barnyard grass [2]): 0 (Herbicidal rate of 5% or less (almost no effect))
herbicidal effect on G: green foxtail (criteria 0-5) (green foxtail [3]; 320 g/ha): 0 (Herbicidal rate of 5% or less (almost no effect))
O: lambsquarters, herbicidal effect rating (lambsquarters [4]): 3 (Herbicidal rate of 40% or more and less than 70%)
herbicidal effect on I: wild oat (criteria 0-5) (wild oat [5]; 320 g/ha): 0 (Herbicidal rate of 5% or less (almost no effect))
J: blackgrass, herbicidal effect rating (blackgrass [6]): 0 (Herbicidal rate of 5% or less (almost no effect))
herbicidal effect on N: redroot pigweed (criteria 0-5) (redroot pigweed [7]; 320 g/ha): 3 (Herbicidal rate of 40% or more and less than 70%)
herbicidal effect on D: Chinese sprangletop (Chinese sprangletop): 0 (Herbicidal rate of 5% or less (almost no effect))
herbicidal effect on J: blackgrass (criteria 0-5) (blackgrass [8]; 320 g/ha): 4 (Herbicidal rate of 70% or more and less than 90%)
herbicidal effect on E: rice flat sedge (rice flat sedge): 0 (Herbicidal rate of 5% or less (almost no effect))
herbicidal effect on L: windgrass (criteria 0-5) (windgrass [9]; 320 g/ha): 0 (Herbicidal rate of 5% or less (almost no effect))
herbicidal effect on H: barnyard grass (barnyard grass [10]): 3 (Herbicidal rate of 40% or more and less than 70%)
L: windgrass, herbicidal effect rating (windgrass [11]): 0 (Herbicidal rate of 5% or less (almost no effect))
herbicidal effect on F: southern crabgrass (criteria 0-5) (southern crabgrass [12]; 320 g/ha): 2 (Herbicidal rate of 20% or more and less than 40%)
M: velvetleaf, herbicidal effect rating (velvetleaf [13]): 0 (Herbicidal rate of 5% or less (almost no effect))
F: southern crabgrass, herbicidal effect rating (southern crabgrass [14]): 0 (Herbicidal rate of 5% or less (almost no effect))
herbicidal effect on M: velvetleaf (criteria 0-5) (velvetleaf [15]; 320 g/ha): 2 (Herbicidal rate of 20% or more and less than 40%)
K: Italian ryegrass, herbicidal effect rating (Italian ryegrass [16]): 0 (Herbicidal rate of 5% or less (almost no effect))
herbicidal effect on K: Italian ryegrass (criteria 0-5) (Italian ryegrass [17]; 320 g/ha): 0 (Herbicidal rate of 5% or less (almost no effect))
herbicidal effect on H: barnyard grass (criteria 0-5) (barnyard grass [18]; 320 g/ha): 2 (Herbicidal rate of 20% or more and less than 40%)
Q: false cleavers, herbicidal effect rating (false cleavers): 0 (Herbicidal rate of 5% or less (almost no effect))
G: green foxtail, herbicidal effect rating (green foxtail [19]): 0 (Herbicidal rate of 5% or less (almost no effect))
N: redroot pigweed, herbicidal effect rating (redroot pigweed [20]): 3 (Herbicidal rate of 40% or more and less than 70%)
I: wild oat, herbicidal effect rating (wild oat [21]): 0 (Herbicidal rate of 5% or less (almost no effect))
herbicidal effect on O: lambsquarters (criteria 0-5) (lambsquarters [22]; 320 g/ha): 4 (Herbicidal rate of 70% or more and less than 90%)
R: persian speedwell, herbicidal effect rating (persian speedwell [23]): 4 (Herbicidal rate of 70% or more and less than 90%)
P: chickweed, herbicidal effect rating (chickweed [24]): 0 (Herbicidal rate of 5% or less (almost no effect))
herbicidal effect on P: chickweed (criteria 0-5) (chickweed [25]; 320 g/ha): 5 (Herbicidal rate of 90% or more (almost completely withered))

Cc1nn(C)c(=O)c(-c2c(-c3ccc(OC(F)F)cc3)sc3ccc(F)cc23)c1OC(=O)N1CCOCC1 [2-290]
R: persian speedwell, herbicidal effect (criteria 0-5) (persian speedwell [1]; AAH 320 g/ha): 5 (Herbicidal rate of 90% or more (almost completely withered))
herbicidal effect on H: barnyard grass (barnyard grass [2]): 0 (Herbicidal rate of 5% or less (almost no effect))
G: green foxtail, herbicidal effect (criteria 0-5) (green foxtail [3]; AAH 320 g/ha): 2 (Herbicidal rate of 20% or more and less than 40%)
herbicidal effect on O: lambsquarters (lambsquarters [4]): 3 (Herbicidal rate of 40% or more and less than 70%)
I: wild oat, herbicidal effect (criteria 0-5) (wild oat [5]; AAH 320 g/ha): 0 (Herbicidal rate of 5% or less (almost no effect))
herbicidal effect on J: blackgrass (blackgrass [6]): 0 (Herbicidal rate of 5% or less (almost no effect))
N: redroot pigweed, herbicidal effect (criteria 0-5) (redroot pigweed [7]; AAH 320 g/ha): 5 (Herbicidal rate of 90% or more (almost completely withered))
herbicidal effect on D: Chinese sprangletop (Chinese sprangletop): 4 (Herbicidal rate of 70% or more and less than 90%)
J: blackgrass, herbicidal effect (criteria 0-5) (blackgrass [8]; AAH 320 g/ha): 0 (Herbicidal rate of 5% or less (almost no effect))
herbicidal effect on E: rice flat sedge (rice flat sedge): 3 (Herbicidal rate of 40% or more and less than 70%)
L: windgrass, herbicidal effect (criteria 0-5) (windgrass [9]; AAH 320 g/ha): 0 (Herbicidal rate of 5% or less (almost no effect))
herbicidal effect on H: barnyard grass (barnyard grass [10]): 4 (Herbicidal rate of 70% or more and less than 90%)
herbicidal effect on L: windgrass (windgrass [11]): 0 (Herbicidal rate of 5% or less (almost no effect))
F: southern crabgrass, herbicidal effect (criteria 0-5) (southern crabgrass [12]; AAH 320 g/ha): 0 (Herbicidal rate of 5% or less (almost no effect))
herbicidal effect on M: velvetleaf (velvetleaf [13]): 0 (Herbicidal rate of 5% or less (almost no effect))
herbicidal effect on F: southern crabgrass (southern crabgrass [14]): 0 (Herbicidal rate of 5% or less (almost no effect))
M: velvetleaf, herbicidal effect (criteria 0-5) (velvetleaf [15]; AAH 320 g/ha): 4 (Herbicidal rate of 70% or more and less than 90%)
herbicidal effect on K: Italian ryegrass (Italian ryegrass [16]): 0 (Herbicidal rate of 5% or less (almost no effect))
K: Italian ryegrass, herbicidal effect (criteria 0-5) (Italian ryegrass [17]; AAH 320 g/ha): 0 (Herbicidal rate of 5% or less (almost no effect))
H: barnyard grass, herbicidal effect (criteria 0-5) (barnyard grass [18]; AAH 320 g/ha): 2 (Herbicidal rate of 20% or more and less than 40%)
herbicidal effect on Q: false cleavers (false cleavers): 0 (Herbicidal rate of 5% or less (almost no effect))
herbicidal effect on G: green foxtail (green foxtail [19]): 0 (Herbicidal rate of 5% or less (almost no effect))
herbicidal effect on N: redroot pigweed (redroot pigweed [20]): 1 (Herbicidal rate of 5% or more and less than 20%)
herbicidal effect on I: wild oat (wild oat [21]): 0 (Herbicidal rate of 5% or less (almost no effect))
O: lambsquarters, herbicidal effect (criteria 0-5) (lambsquarters [22]; AAH 320 g/ha): 5 (Herbicidal rate of 90% or more (almost completely withered))
herbicidal effect on R: persian speedwell (persian speedwell [23]): 3 (Herbicidal rate of 40% or more and less than 70%)
herbicidal effect on P: chickweed (chickweed [24]): 0 (Herbicidal rate of 5% or less (almost no effect))
P: chickweed, herbicidal effect (criteria 0-5) (chickweed [25]; AAH 320 g/ha): 5 (Herbicidal rate of 90% or more (almost completely withered))
